Data from PMC6269873, “Substituted 3-Benzylcoumarins as Allosteric MEK1 Inhibitors: Design, Synthesis and Biological Evaluation as Antiviral Agents” (Molecules, 2013).
Like-named read-outs stand apart in the source and are kept apart here.

Columns and labels:
phosphorylated MEK1 = phosphorylated MEK1 (Homo sapiens, UniProt Q02750); test: MEK1 binding assay (HTRF, tracer displacement); conditions: for inhibition at 2 µM: read-out: % binding (2 µM); for inhibition at 20 µM: read-out: % binding (20 µM)
phosphorylated MEK1, sequence (Q02750 whole entry): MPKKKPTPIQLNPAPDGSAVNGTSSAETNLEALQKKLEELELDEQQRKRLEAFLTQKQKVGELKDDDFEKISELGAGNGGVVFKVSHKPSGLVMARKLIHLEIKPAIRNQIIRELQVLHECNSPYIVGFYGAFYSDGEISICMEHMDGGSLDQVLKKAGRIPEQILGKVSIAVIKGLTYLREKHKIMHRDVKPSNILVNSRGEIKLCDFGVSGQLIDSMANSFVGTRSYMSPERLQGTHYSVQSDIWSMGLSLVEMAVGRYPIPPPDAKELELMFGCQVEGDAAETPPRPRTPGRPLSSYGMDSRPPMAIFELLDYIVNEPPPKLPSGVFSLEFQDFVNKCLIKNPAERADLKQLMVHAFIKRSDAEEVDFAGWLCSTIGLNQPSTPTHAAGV
Procedure: The homogeneous time resolved fluorescence (HTRF) assay was performed on a Proxiplate-384 F plus solid back plate (Perkin Elmer, Waltham, MA. USA) with 5 nM GST tagged phosphorylated MEK1 (GST-MEK1), 2 nM europium-labeled anti-GST antibody (Eu-anti-GST), 20 nM kinase tracer 236 and test compound at a variety of concentrations. In the reaction mixture, GST-MEK1 forms a complex with the Eu-anti-GST and the tracer. Excitation of europium (the donor) using a 340-nm excitation filter results in energy transfer to the fluorophore of the tracer. This energy transfer is detected by an increase in the fluorescence emission of the tracer at 665 nm and a decrease in the fluorescence emission of europium at 615 nm. The FRET ratio was calculated by dividing the emission signal at 665 nm by the emission signal at 615 nm. A competitor compound such as a MEK inhibitor replaces the tracer from the complex and decreases the FRET ratio accordingly. The plate was incubated in dark at room temperature for 30 min before measuring the fluorescent emission of each well at 665 and 615 nm using a 340-nm excitation filter, 100-µs delay time, and 200-µs integration time, on a PHERAStar plate reader (BMG Labtech, Durham, NC, USA). […] Data shown as %Inhibition normalized to AZD6244 at 100 µM.

`Cn1cnc2c(F)c(Nc3ccc(Br)cc3Cl)c(C(=O)NOCCO)cc21` [AZD6244, reference compound] showed an inhibition at 100 µM (phosphorylated MEK1) of 100%.
`Cc1c(Cc2ccccc2)c(=O)oc2cc(O)ccc12` [Compound 4b, 3-Benzyl-7-hydroxy-4-methyl-2H-chromen-2-one] showed an inhibition at 2 µM (phosphorylated MEK1) of -0.81% and an inhibition at 20 µM (phosphorylated MEK1) of -6.03%.
Work on `Cc1c(Cc2ccccc2)c(=O)oc2cc(O)c(Cl)cc12` [Compound 4c, 3-Benzyl-6-chloro-7-hydroxy-4-methyl-2H-chromen-2-one] yielded an inhibition at 2 µM (phosphorylated MEK1) of 15.8% and an inhibition at 20 µM (phosphorylated MEK1) of 5.1%.
`CCc1c(Cc2ccccc2)c(=O)oc2cc(O)ccc12` [Compound 4d, 3-Benzyl-4-ethyl-7-hydroxy-2H-chromen-2-one] showed an inhibition at 2 µM (phosphorylated MEK1) of 27%, an inhibition at 20 µM (phosphorylated MEK1) of 10.4% and a melting point of 140 to 141 °C.
With `CCCc1c(Cc2ccccc2)c(=O)oc2cc(O)ccc12` [Compound 4e, 3-Benzyl-7-hydroxy-4-propyl-2H-chromen-2-one] the inhibition at 2 µM (phosphorylated MEK1) was 29.1%, the inhibition at 20 µM (phosphorylated MEK1) was 7.06% and the melting point was 139 to 140 °C.
`CCc1c(Cc2ccc(F)cc2)c(=O)oc2cc(O)ccc12` [Compound 4g, 4-Ethyl-3-(4-fluorobenzyl)-7-hydroxy-2H-chromen-2-one] gave an inhibition at 2 µM (phosphorylated MEK1) of 10.9%, an inhibition at 20 µM (phosphorylated MEK1) of 19.6% and a melting point of 131 to 132 °C.
Compound `CCCc1c(Cc2ccc(F)cc2)c(=O)oc2cc(O)ccc12` [Compound 4h, 3-(4-Fluorobenzyl)-7-hydroxy-4-propyl-2H-chromen-2-one] has an inhibition at 2 µM (phosphorylated MEK1) of 20.9%, an inhibition at 20 µM (phosphorylated MEK1) of 20.4% and a melting point of 130 to 131 °C.
For `O=c1cc(CCl)c2ccc(O)cc2o1` [Compound 4i, 4-(Chloromethyl)-7-hydroxy-2H-chromen-2-one], the inhibition at 2 µM (phosphorylated MEK1) was 33.3%, the inhibition at 20 µM (phosphorylated MEK1) was 22.4% and the melting point was 166 to 167 °C.
`O=c1cc(CO)c2ccc(O)cc2o1` [Compound 4j, 7-Hydroxy-4-(hydroxymethyl)-2H-chromen-2-one] gave an inhibition at 2 µM (phosphorylated MEK1) of 36.3%, an inhibition at 20 µM (phosphorylated MEK1) of 33.6% and a melting point of 148 to 149 °C.
For `CN(C)C(=O)Oc1ccc2cc(Cc3ccccc3)c(=O)oc2c1` [Compound 12, 3-benzyl-7-N,N-dimethylcarbamoyloxyl-2H-chromen-2-one], the “binding affinity (in words)” value (phosphorylated MEK1) was “disappearance of affinity”, the inhibition at 2 µM (phosphorylated MEK1) was 31.6% and the inhibition at 20 µM (phosphorylated MEK1) was 25.6%.
Work on `CCc1c(Cc2ccccc2)c(=O)oc2cc(OC(=O)N(C)C)ccc12` [Compound 15, 3-Benzyl-4-ethyl-2-oxo-2H-chromen-7-yl dimethylcarbamate] yielded an IC50 (phosphorylated MEK1) of 163 nM, an inhibition at 2 µM (phosphorylated MEK1) of 85% and an inhibition at 20 µM (phosphorylated MEK1) of 92.8%. For the same compound, the melting point was 85 to 86 °C.
In the case of `CCCc1c(Cc2ccccc2)c(=O)oc2cc(OC(=O)N(C)C)ccc12` [Compound 16, 3-Benzyl-2-oxo-4-propyl-2H-chromen-7-yl dimethylcarbamate], the IC50 (phosphorylated MEK1) is reported as 1040 nM, the inhibition at 2 µM (phosphorylated MEK1) is reported as 70.9% and the inhibition at 20 µM (phosphorylated MEK1) is reported as 95.4%. The melting point was 117 to 118 °C.
`CCN(CC)C(=O)Oc1ccc2c(C)c(Cc3ccccc3)c(=O)oc2c1` [Compound 20, 3-Benzyl-4-methyl-2-oxo-2H-chromen-7-yl diethylcarbamate] gave an inhibition at 2 µM (phosphorylated MEK1) of 15.5%, an inhibition at 20 µM (phosphorylated MEK1) of 20% and a melting point of 109 °C.
In the case of `CCN(CC)C(=O)Oc1cc2oc(=O)c(Cc3ccccc3)c(C)c2cc1Cl` [Compound 21, 3-Benzyl-6-chloro-4-methyl-2-oxo-2H-chromen-7-yl diethylcarbamate], the inhibition at 2 µM (phosphorylated MEK1) is reported as 27%, the inhibition at 20 µM (phosphorylated MEK1) is reported as 48.1% and the melting point is reported as 83 to 84 °C.
`CCc1c(Cc2ccccc2)c(=O)oc2cc(OC(=O)N(CC)CC)ccc12` [Compound 22, 3-Benzyl-4-ethyl-2-oxo-2H-chromen-7-yl diethylcarbamate] gave an inhibition at 2 µM (phosphorylated MEK1) of 6.63%, an inhibition at 20 µM (phosphorylated MEK1) of 48.1% and a melting point of 64 to 65 °C.
In the case of `CCCc1c(Cc2ccccc2)c(=O)oc2cc(OC(=O)N(CC)CC)ccc12` [Compound 23, 3-Benzyl-2-oxo-4-propyl-2H-chromen-7-yl diethylcarbamate], the inhibition at 2 µM (phosphorylated MEK1) is reported as 43.1%, the inhibition at 20 µM (phosphorylated MEK1) is reported as 46.1% and the melting point is reported as 112 to 113 °C.
With `CCN(CC)C(=O)Oc1ccc2c(C)c(Cc3ccc(F)cc3)c(=O)oc2c1` [Compound 24, 3-(4-Fluorobenzyl)-4-methyl-2-oxo-2H-chromen-7-yl diethylcarbamate] the inhibition at 2 µM (phosphorylated MEK1) was 22.3%, the inhibition at 20 µM (phosphorylated MEK1) was 27.8% and the melting point was 101 to 102 °C.
In the case of `CCc1c(Cc2ccc(F)cc2)c(=O)oc2cc(OC(=O)N(CC)CC)ccc12` [Compound 25, 4-Ethyl-3-(4-fluorobenzyl)-2-oxo-2H-chromen-7-yl diethylcarbamate], the “binding affinity (in words)” value (phosphorylated MEK1) is reported as “active”, the inhibition at 2 µM (phosphorylated MEK1) is reported as 25.9% and the inhibition at 20 µM (phosphorylated MEK1) is reported as 59.2%. The melting point was 74 to 75 °C.
With `CCCc1c(Cc2ccc(F)cc2)c(=O)oc2cc(OC(=O)N(CC)CC)ccc12` [Compound 26, 3-(4-Fluorobenzyl)-2-oxo-4-propyl-2H-chromen-7-yl diethylcarbamate] the inhibition at 2 µM (phosphorylated MEK1) was 35.2%, the inhibition at 20 µM (phosphorylated MEK1) was 37.5% and the melting point was 51 to 52 °C.
For `CC(=O)Oc1cc2oc(=O)c(Cc3ccccc3)c(C)c2cc1Cl` [Compound 27, 3-Benzyl-6-chloro-4-methyl-2-oxo-2H-chromen-7-yl acetate], the inhibition at 2 µM (phosphorylated MEK1) was 30.6%, the inhibition at 20 µM (phosphorylated MEK1) was 30.8% and the melting point was 190 °C.
Compound `CCCc1c(Cc2ccccc2)c(=O)oc2cc(OC(C)=O)ccc12` [Compound 30, 3-Benzyl-2-oxo-4-propyl-2H-chromen-7-yl acetate] has an inhibition at 2 µM (phosphorylated MEK1) of 15.5%, an inhibition at 20 µM (phosphorylated MEK1) of 25.6% and a melting point of 139 to 140 °C.
For `CCc1c(Cc2ccc(F)cc2)c(=O)oc2cc(OC(C)=O)ccc12` [Compound 32, 4-Ethyl-3-(4-fluorobenzyl)-2-oxo-2H-chromen-7-yl acetate], the “binding affinity (in words)” value (phosphorylated MEK1) was “active”, the IC50 (phosphorylated MEK1; HTRF binding to GST tagged phosphorylated MEK1, read-out: IC50) was 91.2 nM and the inhibition at 2 µM (phosphorylated MEK1) was 94.6%. The inhibition at 20 µM (phosphorylated MEK1) was 101% and the melting point was 122 to 123 °C.
In the case of `Cc1c(Cc2ccccc2)c(=O)oc2cc(OS(=O)(=O)c3ccccc3)ccc12` [Compound 69, 3-Benzyl-4-methyl-2-oxo-2H-chromen-7-yl benzenesulfonate], the inhibition at 2 µM (phosphorylated MEK1) is reported as -11.3% and the inhibition at 20 µM (phosphorylated MEK1) is reported as 2.32%.
Compound `Cc1c(Cc2ccccc2)c(=O)oc2cc(OS(=O)(=O)c3ccccc3)c(Cl)cc12` [Compound 70, 3-Benzyl-6-chloro-4-methyl-2-oxo-2H-chromen-7-yl benzenesulfonate] has an inhibition at 2 µM (phosphorylated MEK1) of 29.9% and an inhibition at 20 µM (phosphorylated MEK1) of 24.5%.
Work on `CCc1c(Cc2ccccc2)c(=O)oc2cc(OS(=O)(=O)c3ccccc3)ccc12` [Compound 71, 3-Benzyl-4-ethyl-2-oxo-2H-chromen-7-yl benzenesulfonate] yielded an inhibition at 2 µM (phosphorylated MEK1) of 31.1% and an inhibition at 20 µM (phosphorylated MEK1) of -2.35%.
Work on `CCCc1c(Cc2ccccc2)c(=O)oc2cc(OS(=O)(=O)c3ccccc3)ccc12` [Compound 72, 3-Benzyl-2-oxo-4-propyl-2H-chromen-7-yl benzenesulfonate] yielded an inhibition at 2 µM (phosphorylated MEK1) of 26% and an inhibition at 20 µM (phosphorylated MEK1) of 14%.
For `CCc1c(Cc2ccc(F)cc2)c(=O)oc2cc(OS(=O)(=O)c3ccccc3)ccc12` [Compound 73, 4-Ethyl-3-(4-fluorobenzyl)-2-oxo-2H-chromen-7-yl benzenesulfonate], the “binding affinity (in words)” value (phosphorylated MEK1) was “inactive”, the inhibition at 2 µM (phosphorylated MEK1) was 16.6% and the inhibition at 20 µM (phosphorylated MEK1) was 7.4%.
Compound `Cc1c(Cc2ccc(F)cc2)c(=O)oc2cc(OS(=O)(=O)c3ccccc3)ccc12` [Compound 74, 3-(4-Fluorobenzyl)-4-methyl-2-oxo-2H-chromen-7-yl benzenesulfonate] has an inhibition at 2 µM (phosphorylated MEK1) of 21.4% and an inhibition at 20 µM (phosphorylated MEK1) of 17%.
`CCCc1c(Cc2ccc(F)cc2)c(=O)oc2cc(OS(=O)(=O)c3ccccc3)ccc12` [Compound 75, 3-(4-Fluorobenzyl)-2-oxo-4-propyl-2H-chromen-7-yl benzenesulfonate] showed an inhibition at 2 µM (phosphorylated MEK1) of 21.6% and an inhibition at 20 µM (phosphorylated MEK1) of 13.8%.
Work on `CCc1c(Cc2ccccc2)c(=O)oc2cc(OS(=O)(=O)c3ccc(C)cc3)ccc12` [Compound 78, 3-Benzyl-4-ethyl-2-oxo-2H-chromen-7-yl 4-methylbenzenesulfonate] yielded an inhibition at 2 µM (phosphorylated MEK1) of 33.2% and an inhibition at 20 µM (phosphorylated MEK1) of 4.76%.
For `CCCc1c(Cc2ccccc2)c(=O)oc2cc(OS(=O)(=O)c3ccc(C)cc3)ccc12` [Compound 79, 3-Benzyl-2-oxo-4-propyl-2H-chromen-7-yl 4-methylbenzenesulfonate], the inhibition at 2 µM (phosphorylated MEK1) was 24.6% and the inhibition at 20 µM (phosphorylated MEK1) was 11.7%.
In the case of `CCc1c(Cc2ccc(F)cc2)c(=O)oc2cc(OS(=O)(=O)c3ccc(C)cc3)ccc12` [Compound 80, 4-Ethyl-3-(4-fluorobenzyl)-2-oxo-2H-chromen-7-yl 4-methylbenzenesulfonate], the “binding affinity (in words)” value (phosphorylated MEK1) is reported as “inactive”, the inhibition at 2 µM (phosphorylated MEK1) is reported as 33.1% and the inhibition at 20 µM (phosphorylated MEK1) is reported as 16.5%.
Work on `CCCc1c(Cc2ccc(F)cc2)c(=O)oc2cc(OS(=O)(=O)c3ccc(C)cc3)ccc12` [Compound 82, 3-(4-Fluorobenzyl)-2-oxo-4-propyl-2H-chromen-7-yl 4-methylbenzenesulfonate] yielded an inhibition at 2 µM (phosphorylated MEK1) of 37.5% and an inhibition at 20 µM (phosphorylated MEK1) of 45.9%.
Work on `O=C(c1ccccc1)c1cc2ccc(O)cc2oc1=O` [Compound 85, 3-Benzoyl-7-hydroxycoumarin] yielded an inhibition at 2 µM (phosphorylated MEK1) of 23% and an inhibition at 20 µM (phosphorylated MEK1) of 20.5%.
For `N#Cc1c(C(=O)c2ccccc2)c(=O)oc2cc(O)ccc12` [Compound 87, 3-Benzoyl-4-cyano-7-hydroxycoumarin], the inhibition at 2 µM (phosphorylated MEK1) was 31.9% and the inhibition at 20 µM (phosphorylated MEK1) was 30%.
